The CheMixHub drug solubility set

Assay: xn = mol fraction of the nth substance listed, in the solute-free solvent

O=c1cc(CBr)c2ccccc2[nH]1 + CN1CCCC1=O + O
solubility (g/100 g solution)
Conditions	278.15 K	283.15 K	288.15 K	293.15 K	298.15 K	303.15 K	308.15 K	313.15 K	318.15 K
x2 = 0.0198	0.0293	0.0392	0.0514	0.0682	0.0873	0.117	0.149	0.189	0.234
x2 = 0.04347	0.107	0.136	0.176	0.223	0.281	0.361	0.442	0.546	0.67
x2 = 0.07228	0.271	0.344	0.428	0.538	0.646	0.804	0.971	1.16	1.41
x2 = 0.1081	0.494	0.611	0.762	0.924	1.12	1.37	1.66	1.97	2.35
x2 = 0.1538	0.764	0.928	1.13	1.36	1.65	1.94	2.3	2.71	3.16
x2 = 0.2143	1.04	1.24	1.5	1.76	2.11	2.47	2.9	3.34	3.89
x2 = 0.2979	1.24	1.48	1.76	2.07	2.46	2.87	3.32	3.82	4.37
x2 = 0.421	1.38	1.62	1.91	2.24	2.57	2.99	3.44	3.93	4.47
x2 = 0.6207	1.42	1.64	1.9	2.19	2.5	2.89	3.26	3.7	4.17

CC1=NNC(=O)N(N=Cc2cccnc2)C1 + CN(C)C=O + CC(C)O
solubility (g/100 g solution)
Conditions	278.15 K	283.15 K	288.15 K	293.15 K	298.15 K	303.15 K	308.15 K	313.15 K	318.15 K
x2 = 0.1705	0.264	0.304	0.352	0.405	0.466	0.532	0.612	0.697	0.796
x2 = 0.354	0.455	0.512	0.588	0.68	0.777	0.896	1.02	1.15	1.3
x2 = 0.5522	0.614	0.694	0.802	0.91	1.04	1.18	1.33	1.5	1.69
x2 = 0.7668	0.771	0.871	0.998	1.13	1.29	1.47	1.65	1.85	2.1

COC(=O)Nc1nc2ccccc2[nH]1 + CN(C)C=O + O
solubility (g/100 g solution)
Conditions	278.15 K	283.15 K	288.15 K	293.15 K	298.15 K	303.15 K	308.15 K	313.15 K	318.15 K
x2 = 0.02669	0.00314	0.0037	0.00435	0.00513	0.00608	0.0069	0.00793	0.00907	0.0104
x2 = 0.05816	0.0129	0.0149	0.017	0.0196	0.0227	0.0252	0.0284	0.0319	0.0358
x2 = 0.09552	0.0278	0.0343	0.0397	0.045	0.0511	0.0563	0.0627	0.0696	0.0773
x2 = 0.1411	0.0542	0.0604	0.0678	0.076	0.0856	0.0938	0.103	0.114	0.126
x2 = 0.1978	0.0795	0.0881	0.098	0.109	0.122	0.133	0.147	0.161	0.175
x2 = 0.2702	0.108	0.12	0.133	0.147	0.163	0.177	0.194	0.211	0.23
x2 = 0.3643	0.144	0.159	0.174	0.192	0.212	0.23	0.25	0.271	0.294
x2 = 0.4967	0.186	0.205	0.223	0.244	0.268	0.29	0.315	0.339	0.365
x2 = 0.6912	0.219	0.24	0.259	0.282	0.308	0.333	0.359	0.387	0.416

Nc1cc(-c2ccncc2)c[nH]c1=O + CN(C)C=O + O
solubility (g/100 g solution)
Conditions	278.15 K	283.15 K	288.15 K	293.15 K	298.15 K	303.15 K	308.15 K	313.15 K	318.15 K	323.15 K
x2 = 0.02666	0.00203	0.00236	0.0028	0.00324	0.00375	0.00428	0.00488	0.00552	0.00624	0.00705
x2 = 0.05806	0.00422	0.00489	0.00574	0.00661	0.00759	0.00861	0.00975	0.011	0.0123	0.0139
x2 = 0.09556	0.00683	0.00794	0.00916	0.0106	0.0122	0.014	0.0156	0.0177	0.0198	0.0224
x2 = 0.1412	0.00979	0.0113	0.0131	0.015	0.0171	0.0195	0.0221	0.0248	0.0277	0.0316
x2 = 0.1978	0.0124	0.0143	0.0167	0.0193	0.022	0.0249	0.0283	0.0322	0.036	0.0407
x2 = 0.27	0.0152	0.0177	0.0208	0.0238	0.0272	0.0308	0.0348	0.0395	0.0442	0.0497
x2 = 0.3652	0.0161	0.0195	0.0231	0.0268	0.0307	0.035	0.0397	0.0451	0.0506	0.0572
x2 = 0.4965	0.0192	0.0227	0.0267	0.0306	0.035	0.0398	0.0452	0.0516	0.0579	0.0654
x2 = 0.6893	0.0186	0.0221	0.0258	0.0305	0.0349	0.0402	0.0458	0.0523	0.0593	0.0673

Cl.NC1CCSC1=O (stereo not drawn) + CO + CC#N
solubility (g/100 g solution)
Conditions	x2 = 0.1	x2 = 0.2	x2 = 0.3	x2 = 0.4	x2 = 0.5	x2 = 0.6	x2 = 0.7	x2 = 0.8	x2 = 0.9
283.15 K	0.153	0.482	1.04	1.98	3.18	4.35	4.99	5.63	6.22
293.15 K	0.155	0.525	1.13	2.12	3.55	4.89	6.04	6.92	7.84
303.15 K	0.17	0.539	1.22	2.35	3.91	5.55	6.97	8.29	9.23
313.15 K	0.177	0.556	1.32	2.56	4.25	6.26	7.78	9.55	10.7
323.15 K	0.194	0.6	1.46	2.83	4.71	7.06	8.51	10.9	12.3

Nc1cccc2c1CN(C1CCC(=O)NC1=O)C2=O (stereo not drawn) + CO + CCOC(C)=O
solubility (g/100 g solution)
Conditions	273.15 K	278.15 K	283.15 K	288.15 K	293.15 K	298.15 K	303.15 K	308.15 K	313.15 K	318.15 K
x2 = 0.4074	0.261	0.29	0.318	0.352	0.389	0.429	0.475	0.525	0.581	0.642
x2 = 0.647	0.353	0.398	0.443	0.489	0.536	0.592	0.648	0.714	0.786	0.863
x2 = 0.8048	0.354	0.393	0.437	0.491	0.546	0.608	0.679	0.76	0.852	0.952
x2 = 0.9166	0.352	0.385	0.426	0.481	0.536	0.599	0.67	0.755	0.854	0.959

Nc1cc(-c2ccncc2)c[nH]c1=O + CO + O
solubility (g/100 g solution)
Conditions	278.15 K	283.15 K	288.15 K	293.15 K	298.15 K	303.15 K	308.15 K	313.15 K	318.15 K	323.15 K
x2 = 0.05881	0.00167	0.00195	0.00231	0.00269	0.00313	0.00358	0.00409	0.00463	0.00525	0.00594
x2 = 0.1233	0.00324	0.00377	0.00445	0.00515	0.00595	0.00677	0.00768	0.00865	0.00977	0.011
x2 = 0.1942	0.00545	0.00626	0.00731	0.00841	0.00969	0.011	0.0124	0.0141	0.0159	0.0179
x2 = 0.2727	0.00818	0.00949	0.0111	0.0129	0.0147	0.0167	0.0189	0.0211	0.0237	0.0266
x2 = 0.3599	0.0113	0.013	0.0152	0.0174	0.0201	0.0228	0.0258	0.029	0.0326	0.0367
x2 = 0.4576	0.0147	0.0171	0.0201	0.0232	0.0266	0.0302	0.034	0.0381	0.0428	0.048
x2 = 0.5675	0.0183	0.0214	0.0246	0.029	0.0331	0.0375	0.0424	0.0475	0.0536	0.0605
x2 = 0.6923	0.0222	0.026	0.0305	0.0355	0.0408	0.0463	0.0524	0.0586	0.0662	0.0743
x2 = 0.835	0.0262	0.0305	0.0355	0.0412	0.0475	0.0545	0.0616	0.0694	0.0789	0.0893

O=C1C=CC(=O)N1c1ccccc1Br + CO + O
solubility (g/100 g solution)
Conditions	278.15 K	283.15 K	288.15 K	293.15 K	298.15 K	303.15 K	308.15 K	313.15 K	318.15 K	323.15 K
x2 = 0.05881	0.58	0.746	0.94	1.19	1.47	1.83	2.25	2.74	3.31	4.02
x2 = 0.1233	1.14	1.45	1.86	2.38	2.94	3.7	4.49	5.5	6.69	7.95
x2 = 0.1942	2.04	2.61	3.29	4.1	5.06	6.13	7.47	9.02	10.8	12.7
x2 = 0.2727	3.47	4.29	5.27	6.48	7.79	9.34	11.1	13	15.3	17.7
x2 = 0.3599	4.79	5.85	7.12	8.56	10.2	12	14.3	16.5	19	21.8
x2 = 0.4576	6.01	7.29	8.71	10.5	12.4	14.5	16.9	19.4	22.2	25.4
x2 = 0.5675	7	8.5	10.2	12.2	14.3	16.8	19.5	22.2	25.4	28.6
x2 = 0.6923	7.84	9.53	11.5	13.5	16.1	18.7	21.7	24.7	28.1	31.6
x2 = 0.835	8.75	10.5	12.7	14.9	17.7	20.6	23.8	27.1	30.8	34.6
